Reference: US20070049564A1 (Wyeth, priority 2005, published 2007)
≈ marks a conversion by molar mass, not a printed value. Like-named read-outs stand apart in the source and are kept apart here.

Key:
[1] = tested on: E. coli GC 2236; experiment: MIC, broth microdilution; settings: Escherichia coli
[2] = tested on: E. coli GC 2235; experiment: MIC, broth microdilution; settings: Escherichia coli
[3] = tested on: E. coli GC 2233; experiment: MIC, broth microdilution; settings: Escherichia coli
[4] = tested on: E. coli GC 2270; experiment: MIC, broth microdilution; settings: Escherichia coli
[5] = tested on: E. coli GC 2271; experiment: MIC, broth microdilution; settings: Escherichia coli
[6] = tested on: E. coli GC 3226; experiment: MIC, broth microdilution; settings: Escherichia coli
[7] = tested on: E. coli GC 1073; experiment: MIC, broth microdilution; settings: Escherichia coli
[8] = tested on: S. typhimurium GC 2172; experiment: MIC, broth microdilution; settings: Salmonella enterica, TYPHIMURIUM
[9] = tested on: S. aureus GC 1079; experiment: MIC, broth microdilution; settings: Staphylococcus aureus
[10] = tested on: S. aureus GC 6335; experiment: MIC, broth microdilution; settings: Staphylococcus aureus
[11] = tested on: S. aureus GC 6469; experiment: MIC, broth microdilution; settings: Staphylococcus aureus
[12] = tested on: E. faecalis GC 4555; experiment: MIC, broth microdilution; settings: Enterococcus faecalis
[13] = tested on: E. faecalis GC 2265; experiment: MIC, broth microdilution; settings: Enterococcus faecalis
[14] = tested on: E. faecium GC 4556; experiment: MIC, broth microdilution; settings: Enterococcus faecium
[15] = tested on: E. faecium GC 2243; experiment: MIC, broth microdilution; settings: Enterococcus faecium
[16] = tested on: S. pyogenes GC 4563; experiment: MIC, broth microdilution; settings: Streptococcus pyogenes
[17] = tested on: S. agalactiae GC 4564; experiment: MIC, broth microdilution; settings: Streptococcus agalactiae
[18] = tested on: c. albicans GC 3066; experiment: MIC, broth microdilution
[19] = tested on: E. coli; experiment: Range of MIC for E. coli strains; settings: Escherichia coli
[20] = tested on: Staph.; experiment: Range of MIC for Staph. strains, including MRSA; settings: Staphylococcus aureus

SMILES: CN(C)c1cc(NC(=O)CN(C(=O)OCOC(=O)C2CCCC2)C(C)(C)C)c(O)c2c1C[C@H]1C[C@H]3[C@H](N(C)C)C(O)=C(C(N)=O)C(=O)[C@@]3(O)C(O)=C1C2=O [Example 46, ({[(2-{[(5aR,6aS,7S,10aS)-9-(aminocarbonyl)-4,7-bis(dimethylamino)-1,8,10a,11-tetrahydroxy-10,12-dioxo-5,5a,6,6a,7,10,10a,12-octahydrotetracen-2-yl]amino}-2-oxoethyl)(tert-butyl)amino]carbonyl}oxy)methyl cyclopentanecarboxylate]
- MIC ([1]; GC2236, read-out: MINIMAL INHIBITORY CONCENTRATION MIC, pre-incubated in Human Serum): 4 µg/mL (≈ 5.29 µM)
- MIC ([1]; GC2236, read-out: MINIMAL INHIBITORY CONCENTRATION MIC, pre-incubated in Mouse Serum): 0.5 µg/mL (≈ 0.662 µM)
- MIC ([1]; GC2236, read-out: MINIMAL INHIBITORY CONCENTRATION MIC, pre-incubated in Water): 64 µg/mL (≈ 84.7 µM)
- MIC ([2]; GC2235, read-out: MINIMAL INHIBITORY CONCENTRATION MIC, pre-incubated in Human Serum): 4 µg/mL (≈ 5.29 µM)
- MIC ([2]; GC2235, read-out: MINIMAL INHIBITORY CONCENTRATION MIC, pre-incubated in Mouse Serum): 0.5 µg/mL (≈ 0.662 µM)
- MIC ([2]; GC2235, read-out: MINIMAL INHIBITORY CONCENTRATION MIC, pre-incubated in Water): 64 µg/mL (≈ 84.7 µM)
- MIC ([3]; GC2233, read-out: MINIMAL INHIBITORY CONCENTRATION MIC, pre-incubated in Human Serum): 4 µg/mL (≈ 5.29 µM)
- MIC ([3]; GC2233, read-out: MINIMAL INHIBITORY CONCENTRATION MIC, pre-incubated in Mouse Serum): 0.5 µg/mL (≈ 0.662 µM)
- MIC ([3]; GC2233, read-out: MINIMAL INHIBITORY CONCENTRATION MIC, pre-incubated in Water): 64 µg/mL (≈ 84.7 µM)
- MIC ([4]; GC2270, read-out: MINIMAL INHIBITORY CONCENTRATION MIC, pre-incubated in Human Serum): 4 µg/mL (≈ 5.29 µM)
- MIC ([4]; GC2270, read-out: MINIMAL INHIBITORY CONCENTRATION MIC, pre-incubated in Mouse Serum): 0.5 µg/mL (≈ 0.662 µM)
- MIC ([4]; GC2270, read-out: MINIMAL INHIBITORY CONCENTRATION MIC, pre-incubated in Water): > 64 µg/mL
- MIC ([5]; GC2271, read-out: MINIMAL INHIBITORY CONCENTRATION MIC, pre-incubated in Human Serum): 4 µg/mL (≈ 5.29 µM)
- MIC ([5]; GC2271, read-out: MINIMAL INHIBITORY CONCENTRATION MIC, pre-incubated in Mouse Serum): 0.5 µg/mL (≈ 0.662 µM)
- MIC ([5]; GC2271, read-out: MINIMAL INHIBITORY CONCENTRATION MIC, pre-incubated in Water): 64 µg/mL (≈ 84.7 µM)
- MIC ([6]; GC3226, read-out: MINIMAL INHIBITORY CONCENTRATION MIC, pre-incubated in Human Serum): 16 µg/mL (≈ 21.2 µM)
- MIC ([6]; GC3226, read-out: MINIMAL INHIBITORY CONCENTRATION MIC, pre-incubated in Mouse Serum): 1 µg/mL (≈ 1.32 µM)
- MIC ([6]; GC3226, read-out: MINIMAL INHIBITORY CONCENTRATION MIC, pre-incubated in Water): > 64 µg/mL
- MIC ([7]; GC1073, read-out: MINIMAL INHIBITORY CONCENTRATION MIC, pre-incubated in Human Serum): 8 µg/mL (≈ 10.6 µM)
- MIC ([7]; GC1073, read-out: MINIMAL INHIBITORY CONCENTRATION MIC, pre-incubated in Mouse Serum): 1 µg/mL (≈ 1.32 µM)
- MIC ([7]; GC1073, read-out: MINIMAL INHIBITORY CONCENTRATION MIC, pre-incubated in Water): > 64 µg/mL
- MIC ([8]; read-out: MINIMAL INHIBITORY CONCENTRATION MIC, pre-incubated in Human Serum): 32 µg/mL (≈ 42.3 µM)
- MIC ([8]; read-out: MINIMAL INHIBITORY CONCENTRATION MIC, pre-incubated in Mouse Serum): 2 µg/mL (≈ 2.65 µM)
- MIC ([8]; read-out: MINIMAL INHIBITORY CONCENTRATION MIC, pre-incubated in Water): > 64 µg/mL
- MIC ([9]; GC1079, read-out: MINIMAL INHIBITORY CONCENTRATION MIC, pre-incubated in Human Serum): 0.5 µg/mL (≈ 0.662 µM)
- MIC ([9]; GC1079, read-out: MINIMAL INHIBITORY CONCENTRATION MIC, pre-incubated in Mouse Serum): 0.5 µg/mL (≈ 0.662 µM)
- MIC ([9]; GC1079, read-out: MINIMAL INHIBITORY CONCENTRATION MIC, pre-incubated in Water): 0.5 µg/mL (≈ 0.662 µM)
- MIC ([10]; GC6335, read-out: MINIMAL INHIBITORY CONCENTRATION MIC, pre-incubated in Human Serum): 0.5 µg/mL (≈ 0.662 µM)
- MIC ([10]; GC6335, read-out: MINIMAL INHIBITORY CONCENTRATION MIC, pre-incubated in Mouse Serum): 1 µg/mL (≈ 1.32 µM)
- MIC ([10]; GC6335, read-out: MINIMAL INHIBITORY CONCENTRATION MIC, pre-incubated in Water): 1 µg/mL (≈ 1.32 µM)
- MIC ([11]; GC6469, read-out: MINIMAL INHIBITORY CONCENTRATION MIC, pre-incubated in Human Serum): 0.5 µg/mL (≈ 0.662 µM)
- MIC ([11]; GC6469, read-out: MINIMAL INHIBITORY CONCENTRATION MIC, pre-incubated in Mouse Serum): 1 µg/mL (≈ 1.32 µM)
- MIC ([11]; GC6469, read-out: MINIMAL INHIBITORY CONCENTRATION MIC, pre-incubated in Water): 1 µg/mL (≈ 1.32 µM)
- MIC ([12]; GC4555, read-out: MINIMAL INHIBITORY CONCENTRATION MIC, pre-incubated in Human Serum): 0.5 µg/mL (≈ 0.662 µM)
- MIC ([12]; GC4555, read-out: MINIMAL INHIBITORY CONCENTRATION MIC, pre-incubated in Mouse Serum): 0.5 µg/mL (≈ 0.662 µM)
- MIC ([12]; GC4555, read-out: MINIMAL INHIBITORY CONCENTRATION MIC, pre-incubated in Water): 2 µg/mL (≈ 2.65 µM)
- MIC ([13]; GC2265, read-out: MINIMAL INHIBITORY CONCENTRATION MIC, pre-incubated in Human Serum): 1 µg/mL (≈ 1.32 µM)
- MIC ([13]; GC2265, read-out: MINIMAL INHIBITORY CONCENTRATION MIC, pre-incubated in Mouse Serum): 0.5 µg/mL (≈ 0.662 µM)
- MIC ([13]; GC2265, read-out: MINIMAL INHIBITORY CONCENTRATION MIC, pre-incubated in Water): 2 µg/mL (≈ 2.65 µM)
- MIC ([14]; GC4556, read-out: MINIMAL INHIBITORY CONCENTRATION MIC, pre-incubated in Human Serum): 1 µg/mL (≈ 1.32 µM)
- MIC ([14]; GC4556, read-out: MINIMAL INHIBITORY CONCENTRATION MIC, pre-incubated in Mouse Serum): 0.5 µg/mL (≈ 0.662 µM)
- MIC ([14]; GC4556, read-out: MINIMAL INHIBITORY CONCENTRATION MIC, pre-incubated in Water): 1 µg/mL (≈ 1.32 µM)
- MIC ([15]; GC2243, read-out: MINIMAL INHIBITORY CONCENTRATION MIC, pre-incubated in Human Serum): 0.25 µg/mL (≈ 0.331 µM)
- MIC ([15]; GC2243, read-out: MINIMAL INHIBITORY CONCENTRATION MIC, pre-incubated in Mouse Serum): 0.25 µg/mL (≈ 0.331 µM)
- MIC ([15]; GC2243, read-out: MINIMAL INHIBITORY CONCENTRATION MIC, pre-incubated in Water): 0.5 µg/mL (≈ 0.662 µM)
- MIC ([16]; GC4563, read-out: MINIMAL INHIBITORY CONCENTRATION MIC, pre-incubated in Human Serum): 0.25 µg/mL (≈ 0.331 µM)
- MIC ([16]; GC4563, read-out: MINIMAL INHIBITORY CONCENTRATION MIC, pre-incubated in Mouse Serum): 0.12 µg/mL (≈ 0.159 µM)
- MIC ([16]; GC4563, read-out: MINIMAL INHIBITORY CONCENTRATION MIC, pre-incubated in Water): 0.25 µg/mL (≈ 0.331 µM)
- MIC ([17]; GC4564, read-out: MINIMAL INHIBITORY CONCENTRATION MIC, pre-incubated in Human Serum): 0.25 µg/mL (≈ 0.331 µM)
- MIC ([17]; GC4564, read-out: MINIMAL INHIBITORY CONCENTRATION MIC, pre-incubated in Mouse Serum): 0.25 µg/mL (≈ 0.331 µM)
- MIC ([17]; GC4564, read-out: MINIMAL INHIBITORY CONCENTRATION MIC, pre-incubated in Water): 0.25 µg/mL (≈ 0.331 µM)
- MIC ([18]; Candida albicans, GC3066, read-out: MINIMAL INHIBITORY CONCENTRATION MIC): > 64 µg/mL
- MINIMAL INHIBITORY CONCENTRATION MIC ([18]; pre-incubated in Human Serum): >64 UG/ML
- MINIMAL INHIBITORY CONCENTRATION MIC ([18]; pre-incubated in Mouse Serum): >64 UG/ML
- MIC ([19]; 20 h, read-out: Range of MIC, E. coli (Mouse Serum)): 0.5 to 2 µg/mL (≈ 0.662 to 2.65 µM)
- MIC ([19]; read-out: Minimum inhibitory concentration (MIC), E. coli (Human Serum)): 4 to 16 µg/mL (≈ 5.29 to 21.2 µM)
- MIC ([20]; MRSA, read-out: Range of MIC, Staph (Mouse Serum)): 0.25 to 1 µg/mL (≈ 0.331 to 1.32 µM)
- MIC ([20]; MRSA, read-out: Range of MIC, Staph (Water)): 0.25 to 2 µg/mL (≈ 0.331 to 2.65 µM)
- MIC ([20]; read-out: Minimum inhibitory concentration (MIC), Staph (Human Serum)): 0.25 to 1 µg/mL (≈ 0.331 to 1.32 µM)
- MIC ([20]; read-out: Minimum inhibitory concentration (MIC), Staph (Water)): 0.25 to 2 µg/mL (≈ 0.331 to 2.65 µM)
